Reference: US12391684B2, “Pharmaceutical formulations and methods for the treatment of gastrointestinal disorders” (Renexxion, LLC, priority 2018, dated 2025)
Counter-ions that a name gives are not always drawn. Like-named read-outs stand apart in the source and are kept apart here.

What was measured:
[1] = Dehydration profile by thermographic analysis (TGA); format: physicochemical; settings: dry nitrogen, 5° C./minute, 25° C. to 250° C.
Protocol: Thermographic analysis (TGA) curves were generated for the anhydrate and trihydrate using a Perkin Elmer TGA-7. Three to five milligram samples were weighed into aluminum sample pans and run under dry nitrogen at 5° C./minute from 25° C. to 250° C. The data were exported to Excel to enable plotting.

[2] = 12-month stability of the anhydrous form in stability chambers (HPLC purity, water content); format: physicochemical; settings: 25° C./60% RH
Protocol: The dihydrochloride salt, anhydrous form of (3S, 4R, 3′R)-6-[4-(4-amino-5-chloro-2-methoxy-benzoylamino)-3-methoxy-piperidin-1-yl]-hexanoic acid 1-azabicyclo[2.2.2]oct-3′-yl ester, was placed in stability chambers with temperature and humidity controlled, for up to 12 months. The temperature was set at 25° C., and the relative humidity was set at 60%. The samples were assayed at time zero, then at 3, 6, 9, and 12 months using an HPLC method. The HPLC conditions were as follows: • Column: Inertsil C8-3, 250 mm length, 3 mm diameter, 5 μm particle size • Mobile Phase A: 2000 mL water+3 mL formic acid • Mobile Phase B: 1000 mL methanol+3 mL formic acid • Flow rate: 0.6 mL/min • Detection wavelength: 275 nm • Injection volume: 20 uL • Time: 50 minutes

[3] = Stability of the trihydrate form stored in bulk in a GMP storage facility; format: physicochemical; settings: room temperature, relative humidity >30%, up to 11 years
Protocol: The trihydrate form was evaluated for stability with regard to purity and strength over a time period of up to 11 years, by storing it in a GMP facility under controlled conditions of temperature and relative humidity (temperature=room temperature and relative humidity >30%).

[4] = for Resulting Form: Antisolvent Water, Ambient, stirred 3 weeks
Protocol: Noncompetitive Slurry Experiments for Polymorph Screening: Noncompetitive slurry experiments were performed as a supplemental polymorph screening method. When suspensions of a polymorphic material are prepared, any polymorphic form with a lower solubility (more thermodynamically stable form) can nucleate. The nucleated forms can convert all the residual solids to the nucleated form via solvent-mediated phase transition. Suspensions of the isolated Form I were prepared by adding excess solid to several different solvent systems. The suspensions were stirred vigorously at ambient temperature for 3 weeks. The remaining solids were collected by vacuum filtration and analyzed by powder X-ray diffraction to determine if any changes in the crystalline form of the solids occurred.

COc1cc(N)c(Cl)cc1C(=O)N[C@@H]1CCN(CCCCCC(=O)O[C@H]2CN3CCC2CC3)C[C@@H]1OC [(3S, 4R, 3′R)-6-[4-(4-amino-5-chloro-2-methoxy-benzoylamino)-3-methoxy-piperidin-1-yl]-hexanoic acid 1-azabicyclo[2.2.2]oct-3′-yl ester]
Dehydration mass loss (TGA) [1]: absent | Purity HPLC (Area %) ([2]; 3 months): 99.2 Area % | Water Content ([2]; 3 months): 6.47% | Purity HPLC (Area %) ([2]; 6 months): 99.3 Area % | Water Content ([2]; 6 months): 8.47% | Water Content ([2]; 6 months, listed as Anhydrous Form of the Dihydrochloride Salt): 8.47% | Purity HPLC (Area %) ([2]; 9 months): 99.2 Area % | Water Content ([2]; 9 months): 8.20% | Purity HPLC (Area %) ([2]; 12 months): 99.3 Area % | Water Content ([2]; 12 months): 8.43% | Purity HPLC (Area %) ([2]; time 0 months): 99.3 Area % | Water Content ([2]; time 0 months): 0.45% | Water Content ([2]; time 0 months, listed as Anhydrous Form of the Dihydrochloride Salt): 0.45% | Decrease in strength of the active ingredient due to increase in water content ([2]; up to 12 months): approximately 8% | Purity of the compound versus specifications (Purity HPLC Area %) ([2]; up to 12 months): remained within the specifications

COc1cc(N)c(Cl)cc1C(=O)N[C@@H]1CCN(CCCCCC(=O)O[C@H]2CN3CCC2CC3)C[C@@H]1OC [Compound 1, (3S, 4R, 3′R)-6-[4-(4-amino-5-chloro-2-methoxy-benzoylamino)-3-methoxy-piperidin-1-yl]-hexanoic acid 1-azabicyclo[2.2.2]oct-3′-yl ester di-hydrochloride salt]
Stability under GMP storage [3]: stable under GMP storage

COc1cc(N)c(Cl)cc1C(=O)N[C@@H]1CCN(CCCCCC(=O)O[C@H]2CN3CCC2CC3)C[C@@H]1OC [Form I, (3S, 4R, 3′R)-6-[4-(4-amino-5-chloro-2-methoxy-benzoylamino)-3-methoxy-piperidin-1-yl]-hexanoic acid 1-azabicyclo[2.2.2]oct-3′-yl ester]
Resulting Form ([4]; Solvent 1-Propanol): Form 1 | Resulting Form ([4]; Solvent Acetonitrile): Form 1 | Resulting Form ([4]; Solvent Ethanol): Form 1 | Resulting Form ([4]; Solvent Methanol): Form 1 | Resulting Form ([4]; Solvent Water): Form 1 | Thermodynamic stability among anhydrous forms ([4]; outcome of the slurry experiments): most thermodynamically stable anhydrous form
